In patent publication US20230080054A1 (ILDONG PHARMACEUTICAL CO., LTD., priority 2021, published 2023):

Experiments:
human ANO6 [1] = target: T1, human ANO6 (Homo sapiens, UniProt Q4KMQ2); test: LACT C2 assay (phosphatidylserine scramblase function assay); assay type: cell-based; conditions: FRT cells expressing human ANO6, 10 μM ionomycin; for inhibition at 0.1 µM: test compound 100 nM, read-out: Inhibition Level 100 nM; for inhibition at 1 µM: test compound 1 μM, read-out: Inhibition Level 1 μM
T1 construct: expressed in transfected cells
T1 sequence (Q4KMQ2 1-931 isoform Q4KMQ2-2): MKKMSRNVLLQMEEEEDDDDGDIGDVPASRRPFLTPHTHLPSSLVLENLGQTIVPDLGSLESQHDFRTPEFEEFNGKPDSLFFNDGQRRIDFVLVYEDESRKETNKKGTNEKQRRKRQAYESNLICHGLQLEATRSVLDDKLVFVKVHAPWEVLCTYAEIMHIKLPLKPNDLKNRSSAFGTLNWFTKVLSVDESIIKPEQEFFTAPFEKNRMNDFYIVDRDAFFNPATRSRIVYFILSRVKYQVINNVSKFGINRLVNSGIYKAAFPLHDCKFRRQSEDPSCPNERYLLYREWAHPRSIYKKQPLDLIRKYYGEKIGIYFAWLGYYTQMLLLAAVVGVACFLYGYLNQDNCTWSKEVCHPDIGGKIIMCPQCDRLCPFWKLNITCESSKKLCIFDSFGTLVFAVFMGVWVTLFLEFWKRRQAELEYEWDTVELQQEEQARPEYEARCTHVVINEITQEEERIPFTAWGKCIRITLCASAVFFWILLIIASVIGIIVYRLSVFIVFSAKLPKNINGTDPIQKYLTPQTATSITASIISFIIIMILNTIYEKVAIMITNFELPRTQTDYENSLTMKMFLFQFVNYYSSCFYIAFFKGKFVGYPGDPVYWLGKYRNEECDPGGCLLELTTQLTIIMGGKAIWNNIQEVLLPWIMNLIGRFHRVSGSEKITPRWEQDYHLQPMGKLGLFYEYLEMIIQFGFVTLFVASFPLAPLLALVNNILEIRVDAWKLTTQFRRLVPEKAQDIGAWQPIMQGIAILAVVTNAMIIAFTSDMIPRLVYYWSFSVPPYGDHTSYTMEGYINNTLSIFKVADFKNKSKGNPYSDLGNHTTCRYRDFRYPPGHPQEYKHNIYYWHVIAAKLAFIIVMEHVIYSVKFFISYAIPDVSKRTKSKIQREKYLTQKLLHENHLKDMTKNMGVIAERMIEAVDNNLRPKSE
Outline: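 Inhibition was normalised between ionomycin-only (0%) and untreated (100%) wells, with triplicates averaged. Readout was background-corrected Lact-C2-GFP (500 nM) fluorescence from imaged cells. The cells were FRT cells stably expressing human ANO6, given compound at 1% DMSO for 10 min before a 10 min 10 μM ionomycin challenge.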

human ANO6 [2] = target: T1, human ANO6; test: YFP quenching assay (ANO6 ion channel activity); assay type: cell-based; conditions: test compound 1 μM, 10 μM ionomycin, read-out: Inhibition Level 1 μM
Outline: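 FRT cells stably expressing human ANO6 and YFP-H148Q/I152L/F46L, preincubated 10 min at 40° C with compounds (1% DMSO) in PBS. Quench read every 0.4 s after injecting 140 mM SCN- with 10 μM ionomycin; % inhibition from the 3.6–7.6 s fluorescence difference, normalised to no-ionomycin (100%) and ionomycin-only (0%) wells, duplicate or triplicate.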

O=C(N[C@@H]1C[C@H]1c1ccccc1)c1cccc(Nc2ccc(-c3ccccc3)nn2)c1 [Compound 68, N-[(1R,2S)-2-phenylcyclopropyl]-3-[(6-phenylpyridazin-3-yl)amino]benzamide]
≥ 60%: inhibition at 0.1 µM (human ANO6 [1]) | inhibition at 1 µM (human ANO6 [1]) | inhibition at 1 µM (human ANO6 [2])

O=C(NCCc1cccc(C(F)(F)F)c1)c1cccc(Nc2ncc(-c3cccc(F)c3)cn2)c1 [Compound 79, 3-{[5-(3-fluorophenyl)pyrimidin-2-yl]amino}-N-{2-[3-(trifluoromethyl)phenyl]ethyl}benzamide]
≥ 60%: inhibition at 0.1 µM (human ANO6 [1]) | inhibition at 1 µM (human ANO6 [1]) | inhibition at 1 µM (human ANO6 [2])

O=C(NCCC1CCCCC1)c1cccc(Nc2ncc(-c3cccc(F)c3)cn2)c1 [Compound 80, N-(2-cyclohexylethyl)-3-{[5-(3-fluorophenyl)pyrimidin-2-yl]amino}benzamide]
≥ 60%: inhibition at 0.1 µM (human ANO6 [1]) | inhibition at 1 µM (human ANO6 [1]) | inhibition at 1 µM (human ANO6 [2])

O=C(Nc1ccc(Cl)c(Cl)c1)c1cccc(Nc2ncc(-c3cccc(F)c3)cn2)c1 [Compound 118, N-(3,4-dichlorophenyl)-3-{[5-(3-fluorophenyl)pyrimidin-2-yl]amino}benzamide]
≥ 60%: inhibition at 0.1 µM (human ANO6 [1]) | inhibition at 1 µM (human ANO6 [1]) | inhibition at 1 µM (human ANO6 [2])

O=C(N[C@@H]1C[C@H]1c1ccccc1)c1cccc(Nc2ncc(-c3cccc(F)c3)cn2)c1 [Compound 119, 3-{[5-(3-fluorophenyl)pyrimidin-2-yl]amino}-N-[(1R,2S)-2-phenylcyclopropyl]benzamide]
≥ 60%: inhibition at 0.1 µM (human ANO6 [1]) | inhibition at 1 µM (human ANO6 [1]) | inhibition at 1 µM (human ANO6 [2])

O=C(Nc1cccc(F)c1)c1cccc(Nc2ccc(-c3cccc(F)c3)cn2)c1 [Compound 122, N-(3-fluorophenyl)-3-{[5-(3-fluorophenyl)pyridin-2-yl]amino}benzamide]
≥ 60%: inhibition at 0.1 µM (human ANO6 [1]) | inhibition at 1 µM (human ANO6 [1]) | inhibition at 1 µM (human ANO6 [2])

O=C(N[C@@H]1C[C@H]1c1ccccc1)c1cccc(Nc2ccc(-c3cccc(F)c3)cn2)c1 [Compound 123, 3-{[5-(3-fluorophenyl)pyridin-2-yl]amino}-N-[(1R,2S)-2-phenylcyclopropyl]benzamide]
≥ 60%: inhibition at 0.1 µM (human ANO6 [1]) | inhibition at 1 µM (human ANO6 [1]) | inhibition at 1 µM (human ANO6 [2])
